Test results from patent publication US20240239780A1, “MODIFIED FERROPORTIN INHIBITORS” (Vifor (International) AG, priority 2021, published 2024).

Molecular target: T1, ferroportin (Fpn) (Mus musculus, UniProt Q9JHI9)
T1 construct: endogenous in cells; host or cells: J774 mouse macrophage cell line, induced with Fe(III)NTA
T1 sequence (Q9JHI9 1-570): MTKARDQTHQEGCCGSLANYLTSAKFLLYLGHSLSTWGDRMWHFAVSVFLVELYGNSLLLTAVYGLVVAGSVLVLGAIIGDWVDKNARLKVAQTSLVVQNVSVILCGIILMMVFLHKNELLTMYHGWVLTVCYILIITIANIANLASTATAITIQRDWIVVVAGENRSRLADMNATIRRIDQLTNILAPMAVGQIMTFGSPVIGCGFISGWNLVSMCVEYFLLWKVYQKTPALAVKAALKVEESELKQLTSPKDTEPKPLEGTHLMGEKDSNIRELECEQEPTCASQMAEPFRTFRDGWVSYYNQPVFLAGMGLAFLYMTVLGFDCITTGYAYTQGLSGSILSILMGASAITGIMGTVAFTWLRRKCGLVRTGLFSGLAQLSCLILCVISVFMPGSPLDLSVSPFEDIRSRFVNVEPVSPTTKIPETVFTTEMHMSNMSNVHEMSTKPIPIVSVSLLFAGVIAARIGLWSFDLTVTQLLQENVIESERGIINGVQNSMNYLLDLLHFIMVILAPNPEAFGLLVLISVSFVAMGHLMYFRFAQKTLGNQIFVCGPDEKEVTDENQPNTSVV
Experiment: Hepcidin Internalization Assay (J774)
Type: cell-based
Settings: J774 cells, TMR-hepcidin 25 nM, 2 hours; read-out: IC 50, average (AVE) of multiple measurements, hepcidin internalization assay
Source text: This cellular assay allows quantification of the binding of hepcidin to ferroportin (Fpn) through microscopic detection of internalization of a fluorescently labeled hepcidin into J774 cells. […] Binding of hepcidin to Fpn triggers internalization and degradation of both hepcidin and Fpn. […] Therefore, microscopic detection of cell-associated TMR fluorescence is a measure of hepcidin binding to Fpn and internalization of hepcidin and Fpn. If TMR-hepcidin is prevented from binding to Fpn, cellular TMR fluorescence remains low (Dürrenberger et al, 2013). The effect of small molecular weight Fpn inhibitor compounds in this assay was evaluated in vitro as described below. […] Cat. 655090) and grown at 37° C. with 5% CO2. After overnight incubation, cells were washed 3 times with pre-warmed DMEM w/o phenol red, 30 μl/well of DMEM w/o phenol red was added after the final wash and 10 μl/well of dilution series of test compounds were added in triplicates. […] Cells were incubated in a total volume of 50 μl at 37° C. with 5% CO2 for 2 hours, then Hoechst 33342 dye was added to a final concentration of 0.5 μg/ml to stain nuclei and further incubated for 10 min. at 37° C. with 5% CO2. […] After removal of the paraformaldehyde solution, cells were washed 3 times with PBS leaving 100 μl per well and the plates were sealed with foil plate seal. […] The acquired image data was analysed with the […] analysis software. […] IC50 values were calculated with the Sum(Mean) raw data using “log(inhibitor) vs. response” curve fitting of Prism 5 software (GraphPad Software Inc., version 5.02). For each data set the fit of the “log(inhibitor) vs. response (three parameters)” model was compared to the fit of the “log(inhibitor) vs. response-Variable slope (four parameters)” model and the IC50 data of the preferred model was used.

First: O=C(NCc1ncccc1F)c1coc(CCNCCc2nc3cc(-c4ccc5c(c4)OCCO5)ccc3[nH]2)n1 [compound 88]
Second: O=C(NCc1ncccc1F)c1coc(CCNCCc2nc3cc(-c4cccc5c4OCCO5)ccc3[nH]2)n1 [compound 81]
The IC50 of the first is 1.7-fold higher: 12 nM for the first, 7 nM for the second.

Compared with `O=C(NCc1ccc2c(ccc3ccccc32)n1)c1coc(CCNCCc2nc3ccccc3[nH]2)n1` [compound 6, 2-(2-((2-(1H-benzo[d]imidazol-2-yl)ethyl)amino)ethyl)-N-(benzo[f]quinolin-3-ylmethyl)oxazole-4-carboxamide], `O=C(NCc1ccc2c(ccc3ccccc32)n1)c1coc(CCNCCc2nc3c(cnc4ccccc43)[nH]2)n1` [compound 12] is 8.7-fold higher in IC50: 1600 nM for the first, 13900 nM for the second.

`Cc1ccccc1-c1ccc2[nH]c(CCNCCc3nc(C(=O)NCc4ncccc4F)co3)nc2c1` [compound 62] and `O=C(NCc1ncccc1F)c1coc(CCNCCc2nc3cc(-c4ccccc4Cl)ccc3[nH]2)n1` [compound 44] are within 1.5-fold of each other in IC50: 8 nM for the first, 6 nM for the second.

`Cc1cccc(-c2ccc3[nH]c(CCNCCc4nc(C(=O)NCc5ncccc5F)co4)nc3c2)c1` [compound 65] and `O=C(NCc1ncccc1F)c1coc(CCNCCc2nc3cc(-c4cccc(F)c4)ccc3[nH]2)n1` [compound 61] are within 1.5-fold of each other in IC50: 15 nM for the first, 11 nM for the second.

`COCCOc1ccccc1-c1ccc2[nH]c(CCNCCc3nc(C(=O)NCc4ncccc4F)co3)nc2c1` [compound 68] and `O=C(NCc1ncccc1F)c1coc(CCNCCc2nc3cc(-c4ccccc4F)ccc3[nH]2)n1` [compound 46] are the same in IC50: 7 nM for the first, 7 nM for the second.

Compared with `O=C(NCc1ncccc1F)c1coc(CCNCCc2nc3cc4c(cc3[nH]2)OCO4)n1` [compound 36], `O=C(NCc1ncccc1F)c1coc(CCNCCc2nc3cc4c(cc3[nH]2)OCCO4)n1` [compound 34] is 1.6-fold lower in IC50: 11 nM for the first, 7 nM for the second. The second is the more potent here.

`O=C(NCc1ncccc1F)c1coc(CCNCCc2nc3cccc(C#Cc4cccc(-c5ncco5)c4)c3[nH]2)n1` [compound 79] and `O=C(NCc1ncccc1F)c1coc(CCNCCc2nc3cccc(C#Cc4cccnc4)c3[nH]2)n1` [compound 80] are within 1.5-fold of each other in IC50: 84 nM for the first, 83 nM for the second.

`O=C(NCc1ncccc1F)c1coc(CCNCCc2nc3cccc(C#Cc4ccccc4)c3[nH]2)n1` [compound 37] and `COc1cccc(C#Cc2cccc3nc(CCNCCc4nc(C(=O)NCc5ncccc5F)co4)[nH]c23)c1` [compound 78] are within 1.5-fold of each other in IC50: 34 nM for the first, 41 nM for the second.

First: O=C(NCc1ncccc1F)c1coc(CCNCc2nc3c(ccc4ccccc43)[nH]2)n1 [compound 4, 2-(2-(((3H-naphtho[1,2-d]imidazol-2-yl)methyl)amino)ethyl)-N-((3-fluoropyridin-2-yl)methyl)oxazole-4-carboxamide]
Second: O=C(NCc1ncccc1F)c1coc(CCNCCc2nc3c(ccc4ccccc43)[nH]2)n1 [compound 5, 2-(2-((2-(3H-naphtho[1,2-d]imidazol-2-yl)ethyl)amino)ethyl)-N-((3-fluoropyridin-2-yl)methyl)oxazole-4-carboxamide]
The IC50 of the first is 5.2-fold higher: 68 nM for the first, 13 nM for the second.

`O=C(NCc1ccccn1)c1coc(CCNCCc2nc3cc(-c4ccc(F)cc4)ccc3[nH]2)n1` [compound 66] and `O=C(NCc1ccccn1)c1coc(CCNCCc2nc3cc(-c4cccc(F)c4)ccc3[nH]2)n1` [compound 69] are within 1.5-fold of each other in IC50: 68 nM for the first, 61 nM for the second.

Compared with `O=C(NCc1ncccc1F)c1coc(CCNCCc2nc3cc4ccccc4cc3[nH]2)n1` [compound 43], `O=C(NCc1ncccc1F)c1coc(CCNCc2nc3cc4ccccc4cc3[nH]2)n1` [compound 1, 2-(2-(((1H-naphtho[2,3-d]imidazol-2-yl)methyl)amino)ethyl)-N-((3-fluoropyridin-2-yl)methyl)oxazole-4-carboxamide] is 4.4-fold higher in IC50: 9 nM for the first, 40 nM for the second.

`O=C(NCc1ncccc1F)c1coc(CCNCCc2nc3cc(C#Cc4ccccc4)ccc3[nH]2)n1` [compound 72] and `O=C(NCc1ncccc1F)c1coc(CCNCCc2nc3cc(C#Cc4cccnc4)ccc3[nH]2)n1` [compound 73] are the same in IC50: 2 nM for the first, 2 nM for the second.

First: O=C(NCc1nc2ccccc2c2ccccc12)c1coc(CCNCCc2nc3c(ccc4ccccc43)[nH]2)n1 [compound 8]
Second: O=C(NCc1nc2ccccc2c2ccccc12)c1coc(CCNCCc2nc3ccccc3[nH]2)n1 [compound 7]
The IC50 of the first is 4.2-fold higher: 6700 nM for the first, 1590 nM for the second.

Going from `O=C(NCc1ncccc1F)c1coc(CCNCCc2nc3cc(-c4cccc(-c5ncco5)c4)ccc3[nH]2)n1` [compound 87] to `O=C(NCc1ncccc1F)c1coc(CCNCCc2nc3cc(-c4ccc(-c5ncco5)cc4)ccc3[nH]2)n1` [compound 90], the IC50 falls from 14 nM to 5.8 nM (2.4-fold).

`Cc1cccc(-c2ccc3[nH]c(CCNCCc4nc(C(=O)NCc5ncccc5F)co4)nc3c2)c1C` [compound 84] and `O=C(NCc1ncccc1F)c1coc(CCNCCc2nc3cc(-c4cccc5c4CCCC5)ccc3[nH]2)n1` [compound 82] are within 1.5-fold of each other in IC50: 12 nM for the first, 15 nM for the second.

Compared with `O=C(NCc1ncccc1F)c1coc(CCNCCc2nc3cnc4ccccc4c3[nH]2)n1` [compound 3, 2-(2-((2-(3H-imidazo[4,5-c]quinolin-2-yl)ethyl)amino)ethyl)-N-((3-fluoropyridin-2-yl)methyl)oxazole-4-carboxamide], `O=C(NCc1ncccc1F)c1coc(CCNCc2nc3cnc4ccccc4c3[nH]2)n1` [compound 2, 2-(2-(((3H-imidazo[4,5-c]quinolin-2-yl)methyl)amino)ethyl)-N-((3-fluoropyridin-2-yl)methyl)oxazole-4-carboxamide] is 1.7-fold lower in IC50: 593 nM for the first, 350 nM for the second. The second is the more potent here.

Going from `COc1cccnc1CNC(=O)c1coc(CCNCCc2nc3cc4c(cc3[nH]2)OCCO4)n1` [compound 48] to `Cc1cccnc1CNC(=O)c1coc(CCNCCc2nc3cc4c(cc3[nH]2)OCCO4)n1` [compound 47], the IC50 falls from 26 nM to 11 nM (2.4-fold).

Compared with `O=C(NCc1ncccc1F)c1coc(CCNCCc2nc3c(-c4cccnc4)cccc3[nH]2)n1` [compound 18], `O=C(NCc1ncccc1F)c1coc(CCNCCc2nc3c(-c4cccc(Cl)c4)cccc3[nH]2)n1` [compound 28] is 2.7-fold higher in IC50: 53 nM for the first, 144 nM for the second. The first is the more potent here.

Going from `O=C(NCc1ncccc1C(F)(F)F)c1coc(CCNCCc2nc3c(ccc4ccccc43)[nH]2)n1` [compound 16] to `Cc1cccnc1CNC(=O)c1coc(CCNCCc2nc3c(ccc4ccccc43)[nH]2)n1` [compound 13], the IC50 falls from 443 nM to 55 nM (8.1-fold). The second is the more potent here.

First: COc1cccnc1CNC(=O)c1coc(CCNCCc2nc3c4c(ccc3[nH]2)CCCC4)n1 [compound 50]
Second: O=C(NCc1ncccc1F)c1coc(CCNCCc2nc3cc(-c4ccc5c(c4)CCCC5)ccc3[nH]2)n1 [compound 89]
The IC50 of the first is 1.9-fold higher: 19 nM for the first, 10 nM for the second.

Going from `COc1ccccc1-c1ccc2[nH]c(CCNCCc3nc(C(=O)NCc4ncccc4OC)co3)nc2c1` [compound 51] to `COc1cccnc1CNC(=O)c1coc(CCNCCc2nc3cc(-c4ccc(C)cc4)ccc3[nH]2)n1` [compound 74], the IC50 falls from 17 nM to 7 nM (2.4-fold). The second is the more potent here.

First: O=C(NCc1ncccc1F)c1coc(CCNCCc2nc3ccc(CN4CCOCC4)cc3[nH]2)n1 [compound 35]
Second: O=C(NCc1ncccc1F)c1coc(CCNCCc2nc3ccc(-c4nn[nH]n4)cc3[nH]2)n1 [compound 40]
The IC50 of the first is 18-fold lower: 57 nM for the first, 1040 nM for the second. The first is the more potent here.

`COc1cccc(-c2ccc3[nH]c(CCNCCc4nc(C(=O)NCc5ncccc5F)co4)nc3c2)c1` [compound 63] and `O=C(NCc1ncccc1F)c1coc(CCNCCc2nc3cc(-c4cccc(Cl)c4)ccc3[nH]2)n1` [compound 85] are within 1.5-fold of each other in IC50: 8 nM for the first, 11 nM for the second.

Compared with `O=C(NCc1ncccc1C(F)(F)F)c1coc(CCNCCc2nc3cc4c(cc3[nH]2)OCCO4)n1` [compound 56], `Cc1ccc(-c2ccc3[nH]c(CCNCCc4nc(C(=O)NCc5ncccc5F)co4)nc3c2)cc1` [compound 60] is 3.8-fold lower in IC50: 49 nM for the first, 13 nM for the second.

Going from `COc1ccc(-c2ccc3[nH]c(CCNCCc4nc(C(=O)NCc5ncccc5F)co4)nc3c2)cc1` [compound 64] to `O=C(NCc1ncccc1F)c1coc(CCNCCc2nc3cc(-c4ccc(Cl)cc4)ccc3[nH]2)n1` [compound 57], the IC50 rises from 10 nM to 27 nM (2.7-fold). The first is the more potent here.

First: O=C(NCc1ncccc1Cl)c1coc(CCNCCc2nc3c(ccc4ccccc43)[nH]2)n1 [compound 14]
Second: O=C(NCc1ncccc1F)c1coc(CCNCCc2nc3cc(-c4ccccc4-c4ncco4)ccc3[nH]2)n1 [compound 86]
The IC50 of the first is 3.7-fold higher: 33 nM for the first, 9 nM for the second.
